Measurements reported in ChEMBL document CHEMBL3792350, “Discovery of a Potent and Orally Efficacious TGR5 Receptor Agonist” (ACS Med Chem Lett, 2016).

What was measured:
Assay type in all cases: ADME, organism-based
[1] = Cmax in C57Bl/6 mouse at 3 mg/kg administered via oral gavage by LC-MS/MS analysis; set-up: dose 3 mg/kg, route oral; details: in vivo
[2] = Cmax in Sprague-Dawley rat at 3 mg/kg administered via oral gavage by LC-MS/MS analysis; set-up: dose 3 mg/kg, route oral; details: in vivo
[3] = AUC in C57Bl/6 mouse at 3 mg/kg administered via oral gavage by LC-MS/MS analysis; details: in vivo
[4] = AUC in Sprague-Dawley rat at 3 mg/kg administered via oral gavage by LC-MS/MS analysis; details: in vivo
[5] = Volume of distribution at steady state in C57Bl/6 mouse at 1 mg/kg, iv as bolus dose by LC-MS/MS analysis; details: in vivo, read-out: Vdss
[6] = Volume of distribution at steady state in Sprague-Dawley rat at 1 mg/kg, iv as bolus dose by LC-MS/MS analysis; details: in vivo, read-out: Vdss
[7] = Clearance in C57Bl/6 mouse at 1 mg/kg, iv as bolus dose by LC-MS/MS analysis; details: in vivo
[8] = Clearance in Sprague-Dawley rat at 1 mg/kg, iv as bolus dose by LC-MS/MS analysis; details: in vivo
[9] = Half life in C57Bl/6 mouse at 1 mg/kg, iv as bolus dose by LC-MS/MS analysis; details: in vivo
[10] = Half life in Sprague-Dawley rat at 1 mg/kg, iv as bolus dose by LC-MS/MS analysis; details: in vivo
[11] = Oral bioavailability in C57Bl/6 mouse at 3 mg/kg administered via oral gavage by LC-MS/MS analysis; details: in vivo
[12] = Oral bioavailability in Sprague-Dawley rat at 3 mg/kg administered via oral gavage by LC-MS/MS analysis; details: in vivo
[13] = tested on: Mus musculus; experiment: fAUC in po dosed diet-induced obese C57 mouse administered as single dose 15 mins; details: in vivo, 0.25 h

## COc1ccc(C(C)(C)c2cnc(SCCOc3ccc(-n4ccnc4)cc3)n2-c2ccc(F)cc2)cc1OC
[1]
  Cmax: 789 ng/mL
[2]
  Cmax: 148 ng/mL
[3]
  AUC: 754 ng·h/mL
[4]
  AUC: 207 ng·h/mL
[5]
  Vd: 0.83 L/kg
[6]
  Vd: 2.05 L/kg
[7]
  clearance: 47.3 mL/min/kg
[8]
  clearance: 79.7 mL/min/kg
[9]
  half-life: 19.8 min
[10]
  half-life: 19.2 min
[11]
  bioavailability: 71%
[12]
  bioavailability: 31%
[13]
  fAUC: 231.38 ng·h/mL

## COc1ccc(C(C)(C)c2cnc(SCc3c(F)cccc3Cl)n2-c2ccc(F)cc2)cc1OC
[1]
  Cmax: 51.8 ng/mL
[3]
  AUC: 73.5 ng·h/mL
[5]
  Vd: 1.54 L/kg
[7]
  clearance: 45.5 mL/min/kg
[9]
  half-life: 45.6 min
[11]
  bioavailability: 7%
